Laboratory results as given in US6897237B2, “MMP-12 inhibitors” (Shionogi & Co. Ltd., priority 2000, dated 2005).

How the values were obtained:
Assay type in all cases: biochemical
Settings in all cases: substrate MOCAc-Pro-Leu-Gly-Leu-A2Pr(DNP)-Ala-Arg-NH2
MMP-12 catalytic domain = target: T1, MMP-12 catalytic domain (Homo sapiens, UniProt P39900); test: Assay for inhibitory activities on MMPs (fluorogenic peptide substrate): MMP-12
T1 construct: catalytic domain(^100Phe˜^263Gly); His-tag; enterokinase digestion-site; made in house; host or cells: Escherichia coli
Method: (§1) In regard to MMP-12, catalytic domain(^100Phe˜^263Gly) was amplified with RT-PCR from Human Placenta Total RNA. This was cloned in Escherichia coli expression vector pTrc99AHE inserted with His-tag sequence and enterokinase digestion-site, induced and expressed by IPTG (Isopropyl-β-D-thiogalactopyranoside) and expressed in a insoluble fraction. Isolation of MMP-12 from a insoluble fraction was carried out by dissolving in modifier (6M urea) by a usual method and purification with metal chelate chromatography (Ni Chelateing Sepharose). And then removing modifier (6M urea) with dialysis and refolding of the enzyme spontaneously gave activated MMP-12.
(§2) The enzymatic activity on MMPs was analyzed by the method described in “C. Graham Knight, Frances Willenbrock and Gillian Murphy: A novel coumarin-labelled peptide for sensitive continuous assays of the matrix metalloproteinases: FEBS LETT., 296, (1992), 263-266”. The substrate: MOCAc-Pro-Leu-Gly-Leu-A2Pr(DNP)-Ala-Arg-NH2 was purchased from Peptide Institute, Inc., Osaka, Japan. The measurement of the inhibitory activities (IC50) was carried out by the following four methods;
(§3) (A) Reaction with substrate, enzyme (MMPs) and inhibitor
(§4) (B) Reaction with substrate and inhibitor, without enzyme
(§5) (C) Reaction with substrate and enzyme (MMPs), without inhibitor
(§6) (D) Reaction with substrate only
(§7) IC50 values were calculated by using the following formula and each fluorescence values of above four methods (A to D).
(§8) % inhibition={1−(A−B)/(C−D)}×100
(§9) IC50 means the concentration required to inhibit 50% of the enzyme activity.

MMP-2 = target: T2, MMP-2 (Homo sapiens, UniProt P08253); test: Assay for inhibitory activities on MMPs (fluorogenic peptide substrate): MMP-2
T2 construct: purchased Calbiochem-Novabiochem International, Inc
T2 sequence (P08253 110-660): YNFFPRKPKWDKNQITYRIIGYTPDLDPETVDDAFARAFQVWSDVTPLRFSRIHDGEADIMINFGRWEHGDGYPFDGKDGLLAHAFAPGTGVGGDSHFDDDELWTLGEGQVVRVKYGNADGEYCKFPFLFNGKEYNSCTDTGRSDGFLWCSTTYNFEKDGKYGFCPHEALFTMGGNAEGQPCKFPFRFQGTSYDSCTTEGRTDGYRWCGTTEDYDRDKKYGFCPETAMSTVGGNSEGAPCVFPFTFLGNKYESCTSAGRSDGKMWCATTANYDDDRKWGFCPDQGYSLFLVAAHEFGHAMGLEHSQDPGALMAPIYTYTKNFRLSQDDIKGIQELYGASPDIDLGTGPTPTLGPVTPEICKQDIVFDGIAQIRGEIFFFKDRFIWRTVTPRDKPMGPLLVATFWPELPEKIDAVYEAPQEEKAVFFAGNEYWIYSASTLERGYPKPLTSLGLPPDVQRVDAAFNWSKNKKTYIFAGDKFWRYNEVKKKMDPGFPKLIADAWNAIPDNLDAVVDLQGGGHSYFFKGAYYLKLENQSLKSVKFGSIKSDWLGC
Method: MMP-2 was purchased from Calbiochem-Novabiochem International, Inc.
as §2, §3, §4, §5, §6, §7, §8, §9

MMP-9 = target: T3, MMP-9 (Homo sapiens, UniProt P14780); test: Assay for inhibitory activities on MMPs (fluorogenic peptide substrate): MMP-9
T3 construct: endogenous in cells; host or cells: HT1080 human fibrosarcoma cells, TPA-stimulated; purified in house from conditioned medium
Excerpt: MMP-9 was isolated and purified by using a combination of procedures described in previous reports as follows. Yasunori Okada, Yukio Gonoji, Katsumi Naka, Katsuro Tomita, Isao Nakanishi, Kazushi Iwata, Kyoko Yamashita, and Taro Hayakawa: Matrix metalloproteinase 9 (92-kDa gelatinase/type IV collagenase) from HT1080 human fibrosarcoma cells. Purification and activation of the precursor and enzymic properties. J. Biol. Chem., 267 (1.992) 21712-21719. Yasunori Okada, Tatsuhisa Morodomi, Jan J, Enghild, Ko Suzuki, Atsushi Yasui, Isao Nakanishi, Guy Salvesen and Hideaki Nagase: Matrix metalloproteinase 2 from human rheumatoid synovial fibroblasts. Purification and activation of the precursor and enzymic properties. Eur. J. Biochem. 194 (1990) 721-730. Robin V Ward, Rosalind M Hembry, John J Reynolds and Gillian Murphy: The purification of tissue inhibitor of metalloproteinase-2 from its 72 kDa progelatinase complex. Biochem. J. 278 (1991) 179-187.
Briefly, human fibrosarcoma ATCC HT1080 cell line was cultured to confluent in Dulbecco's Modified Medium (DMEM) containing 10% fetal-calf serum at 37° C. for 48 hours. Subsequently, the medium of confluent culture was changed to serum-free DMEM medium. To obtain MMP-9, Phorbol-12-myristate-13-acetate (TPA) must be added to this serum-free DMEM medium at a concentration of 50 ng/ml. The TPA treated medium was centrifuged at 3000 rpm for 15 min and the supernatant was concentrated to 450 ml by a Toyo-Roshi UP-20 apparatus with an ultrafiltration membrane. Then, proMMP-9 in this concentrated solution was purified by using columns of Gelatin-Sepharose and Concanavalin A-Sepharose. The pool containing proMMP-9 was dialyzed, concentrated (Toyo-Roshi UP-20) and applied to columns of Sephacryl S-200 and Green A matrix for the separation from TIMPs. The obtained proMMP-9 fraction was activated by TPCK-Trypsin (final conc. […] reaction mix.).
as §2, §3, §4, §5, §6, §7, §8, §9

MMP-8 catalytic domain = target: T4, MMP-8 catalytic domain (Homo sapiens, UniProt P22894); test: Assay for inhibitory activities on MMPs (fluorogenic peptide substrate): MMP-8
T4 construct: catalytic domain (^99Phe˜^262Gly); His-tag; enterokinase digestion-site; made in house; host or cells: Escherichia coli
Excerpt: In regard to MMP-8, catalytic domain (^99Phe˜^262Gly) was amplified with PCR using commercial available Human Bone Marrow cDNA. This was cloned in Escherichia. coli expression vector pTrc99AHE inserted with His-tag sequence and enterokinase digestion-site, induced and expressed by IPTG (Isopropyl-β-D-thiogalactopyranoside) and expressed in a insoluble fraction (Than F. Ho, M. Walid Qoronfleh, Robert C. Wahl, Trica A. Pulvino, Karen J. Vavra, Joe Falvo, Tracey M. Banks, Patricia G. Brake and Richard B. Ciccarelli: Gene expression, purification and characterization of recombinant human neutrophil collagenase. Gene 146, (1994) 297-301, Prepared by the a improved method of this material). Isolation of MMP-8 from insoluble fraction was carried out by dissolving in modifier (6M urea) by a usual method and purification with metal chelate chromatography. And then removing modifier (6M urea) with dialysis and refolding of the enzyme spontaneously gave activated MMP-8.
as §2, §3, §4, §5, §6, §7, §8, §9

MMP-13 catalytic domain = target: T5, MMP-13 catalytic domain (Homo sapiens, UniProt P45452); test: Assay for inhibitory activities on MMPs (fluorogenic peptide substrate): MMP-13
T5 construct: catalytic domain (^104Tyr˜^267Gly); His-tag; enterokinase digestion-site; made in house; host or cells: Escherichia coli
Method: as §1, with “MMP-13, mRNA was prepared from carcinoma cell SW1353 derived from human cartilage stimulate by IL-1, TNF and” for “MMP-12,”, “domain (^104Tyr˜^267Gly)” for “domain(^100Phe˜^263Gly)”, “RT-PCR.” for “RT-PCR from Human Placenta Total RNA.”, “MMP-1.3” for “MMP-12”, “dialyze” for “dialysis”, “MMP-13.” for “MMP-12.”
as §2, §3, §4, §5, §6, §7, §8, §9

MMP-1 = target: T6, MMP-1 (Homo sapiens, UniProt P03956); test: Assay for inhibitory activities on MMPs (fluorogenic peptide substrate): MMP-1
T6 construct: purchased Yagai
T6 sequence (P03956 100-469): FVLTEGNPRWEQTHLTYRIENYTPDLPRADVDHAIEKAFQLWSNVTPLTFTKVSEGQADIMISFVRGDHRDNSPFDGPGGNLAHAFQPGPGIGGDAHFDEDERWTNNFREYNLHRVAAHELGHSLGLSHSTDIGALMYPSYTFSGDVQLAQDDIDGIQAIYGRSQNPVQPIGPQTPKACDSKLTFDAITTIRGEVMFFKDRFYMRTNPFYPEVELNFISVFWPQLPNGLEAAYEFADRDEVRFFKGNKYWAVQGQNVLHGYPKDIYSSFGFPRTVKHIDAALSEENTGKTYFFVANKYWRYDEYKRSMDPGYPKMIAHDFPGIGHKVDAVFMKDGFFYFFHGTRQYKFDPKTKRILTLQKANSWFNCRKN
Method: MMP-1 was purchased from Yagai.
as §2, §3, §4, §5, §6, §7, §8, §9

T1 sequence (P39900 100-263): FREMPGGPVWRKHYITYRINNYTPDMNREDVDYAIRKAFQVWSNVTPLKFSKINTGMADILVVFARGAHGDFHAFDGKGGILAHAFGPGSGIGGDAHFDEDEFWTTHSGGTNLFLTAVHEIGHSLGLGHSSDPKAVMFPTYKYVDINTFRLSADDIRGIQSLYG
T4 sequence (P22894 99-262): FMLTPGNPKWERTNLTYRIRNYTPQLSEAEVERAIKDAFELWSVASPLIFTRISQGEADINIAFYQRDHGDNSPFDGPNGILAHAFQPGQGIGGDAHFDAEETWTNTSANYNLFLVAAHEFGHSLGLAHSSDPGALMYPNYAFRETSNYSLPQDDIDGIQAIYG
T3 sequence (P14780 107-707 limits assumed): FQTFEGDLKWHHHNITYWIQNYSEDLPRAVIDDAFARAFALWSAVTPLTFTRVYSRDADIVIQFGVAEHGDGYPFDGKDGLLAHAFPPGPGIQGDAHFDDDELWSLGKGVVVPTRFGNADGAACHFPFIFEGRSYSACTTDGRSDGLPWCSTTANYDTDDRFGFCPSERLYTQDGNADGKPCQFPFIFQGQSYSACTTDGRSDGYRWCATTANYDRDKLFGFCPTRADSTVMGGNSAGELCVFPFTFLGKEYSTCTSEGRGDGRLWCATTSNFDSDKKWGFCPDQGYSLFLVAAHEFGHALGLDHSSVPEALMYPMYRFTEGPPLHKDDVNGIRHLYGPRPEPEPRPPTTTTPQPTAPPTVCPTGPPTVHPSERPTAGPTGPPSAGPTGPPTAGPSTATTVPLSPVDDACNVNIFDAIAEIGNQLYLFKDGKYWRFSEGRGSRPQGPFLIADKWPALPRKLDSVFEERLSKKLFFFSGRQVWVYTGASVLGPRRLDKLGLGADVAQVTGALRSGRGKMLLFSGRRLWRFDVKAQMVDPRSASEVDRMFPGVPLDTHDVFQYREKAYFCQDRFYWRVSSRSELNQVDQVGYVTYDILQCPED

SMILES	IC50 (MMP-12 catalytic domain) [nM]	IC50 (MMP-2) [nM]	IC50 (MMP-9) [nM]	IC50 (MMP-8 catalytic domain) [nM]	IC50 (MMP-13 catalytic domain) [nM]	IC50 (MMP-1) [nM]
O=C(O)[C@@H](Cc1ccccc1)NS(=O)(=O)c1ccc(C#Cc2ccc3ccccc3c2)cc1 [Compound A-2]	16	> 10000	> 10000	> 10000	> 10000	> 10000
C[C@H](NS(=O)(=O)c1ccc(C#Cc2ccc3ccccc3c2)cc1)C(=O)O [Compound A-8]	16	570	3280	2440	2770	> 10000
O=C(O)CNS(=O)(=O)c1ccc(C#Cc2ccc3ccccc3c2)cc1 [Compound A-9]	69	250	1800	> 10000	2880	> 10000
CC(C)C[C@H](NS(=O)(=O)c1ccc(C#Cc2ccc3ccccc3c2)cc1)C(=O)O [Compound A-11]	5.9	370	1270	580	460	> 10000
O=C(O)[C@H](NS(=O)(=O)c1ccc(C#Cc2ccc3ccccc3c2)cc1)c1ccc(O)cc1 [Compound A-12]	35	370	1790	3630	1140	> 10000
O=C(O)[C@H](Cc1ccccc1)NS(=O)(=O)c1ccc(C#Cc2ccc3c(c2)OCO3)cc1 [Compound A-22]	7.9	13	300	10	37	> 10000
O=C(O)[C@H](Cc1ccccc1)NS(=O)(=O)c1ccc(C#Cc2ccc3ccccc3c2)s1 [Compound B-2]	240	> 10000	> 10000	> 10000	> 10000	> 10000
O=C(O)[C@@H](Cc1c[nH]c2ccccc12)NS(=O)(=O)c1ccc(C#Cc2ccc3ccccc3c2)s1 [Compound B-3]	16	–	750	1400	> 10000	> 10000

More lines, now with the values ahead:

IC50 (MMP-12 catalytic domain) [nM]	IC50 (MMP-2) [nM]	IC50 (MMP-9) [nM]	IC50 (MMP-8 catalytic domain) [nM]	IC50 (MMP-13 catalytic domain) [nM]	IC50 (MMP-1) [nM]	SMILES
21	> 10000	> 10000	> 10000	> 10000	> 10000	O=C(O)[C@H](Cc1ccccc1)NS(=O)(=O)c1ccc(C#Cc2ccc3ccccc3c2)cc1 [Compound A-3]
14	110	330	1060	340	> 10000	CC(C)[C@@H](NS(=O)(=O)c1ccc(C#Cc2ccc3ccccc3c2)cc1)C(=O)O [Compound A-5]
–	–	–	–	–	> 10000	CC(C)[C@H](NS(=O)(=O)c1ccc(C#Cc2ccc3ccccc3c2)cc1)C(=O)O [Compound A-6]
58	370	1440	4380	1550	> 10000	CC(C)C[C@@H](NS(=O)(=O)c1ccc(C#Cc2ccc3ccccc3c2)cc1)C(=O)O [Compound A-10]
32	460	900	> 10000	890	> 10000	O=C(O)[C@H](Cc1c[nH]c2ccccc12)NS(=O)(=O)c1ccc(C#Cc2ccc3ccccc3c2)cc1 [Compound A-15]
42	820	> 10000	> 10000	> 10000	> 10000	O=C(O)[C@@H](Cc1ccccc1)NS(=O)(=O)c1ccc(C#Cc2ccc3ccccc3c2)s1 [Compound B-1]
11	240	530	540	640	> 10000	CC(C)[C@@H](NS(=O)(=O)c1ccc(C#Cc2ccc3ccccc3c2)s1)C(=O)O [Compound B-4]
82	2230	3270	2340	6900	> 10000	CC(C)[C@H](NS(=O)(=O)c1ccc(C#Cc2ccc3ccccc3c2)s1)C(=O)O [Compound B-5]
160	2030	6310	7790	> 10000	> 10000	C[C@H](NS(=O)(=O)c1ccc(C#Cc2ccc3ccccc3c2)s1)C(=O)O [Compound B-7]
48	1120	2110	2650	2300	> 10000	O=C(O)[C@H](NS(=O)(=O)c1ccc(C#Cc2ccc3ccccc3c2)s1)c1ccc(O)cc1 [Compound B-8]
